Data reported in BindingDB's records for patent US12194050 (Richter Gedeon, 2025).

Biological target: Neuronal acetylcholine receptor subunit alpha-7 (Homo sapiens, UniProt P36544)
Assay: Ca2+ Fluorometry
Experimental: α7 cells stably expressing human α7 nAchR were cultured in the medium detailed above, and were split twice a week. For the fluorometric measurements of cytosolic Ca2+ ion concentration ([Ca2+]i) cells were seeded in 96-well microplates at a density of 60000 cells/well and maintained overnight in a tissue culture incubator at 37° C. under an atmosphere of 95% air/5% CO2. The plating medium was identical with the culture medium. 50 μl of the growth medium was aspirated with a cell washer (BioTek Elx405UCVWS). Then 50 μl/well Calcium 5 kit diluted 2-fold in assay buffer was added manually using an 8-channel pipette. […] Baseline and agonist-evoked [Ca2+]i-changes were monitored with FlexStation II (Molecular Devices, Sunnyvale, Calif.), a plate reader fluorometer with integrated 8-channel fluid addition capability. Fluorescence measurements were carried out at 37° C. […] Baseline was recorded for 20 seconds followed by agonist stimulation. 50 μl 4× concentrated agonist solution was added to the cells using the pipettor of FlexStation II and fluorescence was monitored for an additional 40 seconds. […] In all experiments, all treatments were measured in multiple wells in parallel, and the mean ΔF/F values were used for analysis.

Chain of Neuronal acetylcholine receptor subunit alpha-7 (P36544 whole entry): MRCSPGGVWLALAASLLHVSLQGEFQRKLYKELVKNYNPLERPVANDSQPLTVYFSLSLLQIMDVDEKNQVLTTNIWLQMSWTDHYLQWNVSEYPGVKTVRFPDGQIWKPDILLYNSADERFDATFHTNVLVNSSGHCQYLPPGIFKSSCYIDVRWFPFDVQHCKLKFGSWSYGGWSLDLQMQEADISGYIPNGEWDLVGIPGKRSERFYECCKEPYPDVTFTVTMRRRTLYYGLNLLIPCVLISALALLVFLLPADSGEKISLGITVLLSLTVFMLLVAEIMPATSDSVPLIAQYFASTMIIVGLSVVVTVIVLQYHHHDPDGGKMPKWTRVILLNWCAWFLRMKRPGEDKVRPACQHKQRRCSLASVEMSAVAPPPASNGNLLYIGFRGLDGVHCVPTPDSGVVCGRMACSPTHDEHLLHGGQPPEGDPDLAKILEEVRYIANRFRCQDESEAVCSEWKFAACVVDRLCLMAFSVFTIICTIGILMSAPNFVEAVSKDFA

EC50: 90 nM
Structure (SMILES): CCN1C(C(=O)Nc2cccc(C(F)(F)F)n2)=CC([C@H]2CC[C@H](C(F)(F)F)CC2)=NS1(=O)=O [US12194050, Example 53]
